{"source": "ChEMBL document CHEMBL4043155", "about": "“Development of helix-stabilized antimicrobial peptides composed of lysine and hydrophobic α,α-disubstituted α-amino acid residues” (2017)", "format_in_all_cases": "functional", "key": {"Escherichia coli": {"tested_on": "Escherichia coli", "experiment": "Antimicrobial activity against Escherichia coli NBRC 3972 after 16 hrs by microbroth dilution method", "settings": "NBRC 3972, 16 h"}, "Pseudomonas aeruginosa": {"tested_on": "Pseudomonas aeruginosa", "experiment": "Antimicrobial activity against Pseudomonas aeruginosa NBRC 13275 after 16 hrs by microbroth dilution method", "settings": "NBRC 13275, 16 h"}, "Staphylococcus aureus": {"tested_on": "Staphylococcus aureus", "experiment": "Antimicrobial activity against Staphylococcus aureus NBRC 13276 after 16 hrs by microbroth dilution method", "settings": "NBRC 13276, 16 h"}}, "note": "Where a SMILES comes first, the peptide text is derived from it. [ ]: non-standard residue; d: D form. Ac6c = NC1(C(=O)O)CCCCC1; Ac5c = NC1(C(=O)O)CCCC1", "data": [{"compound": "CC(=O)N[C@H](CCCCN)C(=O)N[C@H](CCCCN)C(=O)NC(C)(C)C(=O)N[C@H](CCCCN)C(=O)N[C@H](CCCCN)C(=O)NC(C)(C)C(=O)N[C@H](CCCCN)C(=O)N[C@H](CCCCN)C(=O)NC(C)(C)C(N)=O", "values": [{"measurement": "MIC", "setting": "Escherichia coli", "result": "> 800", "unit": "µM"}, {"measurement": "MIC", "setting": "Pseudomonas aeruginosa", "result": "> 800", "unit": "µM"}, {"measurement": "MIC", "setting": "Staphylococcus aureus", "result": "> 800", "unit": "µM"}]}, {"compound": "CC(=O)N[C@@H](CCCCN)C(=O)N[C@H](CCCCN)C(=O)NC(C)(C)C(=O)N[C@@H](CCCCN)C(=O)N[C@H](CCCCN)C(=O)NC(C)(C)C(=O)N[C@@H](CCCCN)C(=O)N[C@H](CCCCN)C(=O)NC(C)(C)C(N)=O", "values": [{"measurement": "MIC", "setting": "Escherichia coli", "result": "> 800", "unit": "µM"}, {"measurement": "MIC", "setting": "Pseudomonas aeruginosa", "result": "> 800", "unit": "µM"}, {"measurement": "MIC", "setting": "Staphylococcus aureus", "result": "> 800", "unit": "µM"}]}, {"compound": "CC(=O)N[C@@H](CCCCN)C(=O)N[C@@H](CCCCN)C(=O)NC(C)(C)C(=O)N[C@@H](CCCCN)C(=O)N[C@@H](CCCCN)C(=O)NC(C)(C)C(=O)N[C@@H](CCCCN)C(=O)N[C@@H](CCCCN)C(=O)NC(C)(C)C(N)=O", "values": [{"measurement": "MIC", "setting": "Escherichia coli", "result": 400, "unit": "µM"}, {"measurement": "MIC", "setting": "Pseudomonas aeruginosa", "result": "> 800", "unit": "µM"}, {"measurement": "MIC", "setting": "Staphylococcus aureus", "result": "> 800", "unit": "µM"}]}, {"compound": "CC(=O)N[C@@H](CCCCN)C(=O)N[C@@H](CCCCN)C(=O)NC1(C(=O)N[C@@H](CCCCN)C(=O)N[C@@H](CCCCN)C(=O)NC2(C(=O)N[C@@H](CCCCN)C(=O)N[C@@H](CCCCN)C(=O)NC3(C(N)=O)CCCC3)CCCC2)CCCC1", "note": "(Ac-KK[Ac5c]KK[Ac5c]KK[Ac5c]-NH2)", "values": [{"measurement": "MIC", "setting": "Escherichia coli", "result": 50, "unit": "µM"}, {"measurement": "MIC", "setting": "Pseudomonas aeruginosa", "result": 400, "unit": "µM"}, {"measurement": "MIC", "setting": "Staphylococcus aureus", "result": "> 800", "unit": "µM"}]}, {"compound": "CC(=O)N[C@@H](CCCCN)C(=O)N[C@@H](CCCCN)C(=O)NC1(C(=O)N[C@@H](CCCCN)C(=O)N[C@@H](CCCCN)C(=O)NC2(C(=O)N[C@@H](CCCCN)C(=O)N[C@@H](CCCCN)C(=O)NC3(C(N)=O)CCCCC3)CCCCC2)CCCCC1", "note": "(Ac-KK[Ac6c]KK[Ac6c]KK[Ac6c]-NH2)", "values": [{"measurement": "MIC", "setting": "Escherichia coli", "result": 25, "unit": "µM"}, {"measurement": "MIC", "setting": "Pseudomonas aeruginosa", "result": 50, "unit": "µM"}, {"measurement": "MIC", "setting": "Staphylococcus aureus", "result": "> 800", "unit": "µM"}]}, {"compound": "CC(=O)NC(CCCCN)C(=O)NC(CCCCN)C(=O)NC(C)(C)C(=O)NC(CCCCN)C(=O)NC(CCCCN)C(=O)NC(C)(C)C(=O)NC(CCCCN)C(=O)NC(CCCCN)C(=O)NC(C)(C)C(N)=O", "note": "(racemic)", "values": [{"measurement": "MIC", "setting": "Escherichia coli", "result": "> 800", "unit": "µM"}, {"measurement": "MIC", "setting": "Pseudomonas aeruginosa", "result": "> 800", "unit": "µM"}, {"measurement": "MIC", "setting": "Staphylococcus aureus", "result": "> 800", "unit": "µM"}]}, {"compound": "Ac-GIGKFLHSAKKFGKAFVGEIMNS-NH2", "values": [{"measurement": "MIC", "setting": "Escherichia coli", "result": 50, "unit": "µM"}, {"measurement": "MIC", "setting": "Pseudomonas aeruginosa", "result": 12.5, "unit": "µM"}, {"measurement": "MIC", "setting": "Staphylococcus aureus", "result": 200, "unit": "µM"}]}, {"compound": "Ac-KKAKKAKKA-NH2", "values": [{"measurement": "MIC", "setting": "Escherichia coli", "result": "> 800", "unit": "µM"}, {"measurement": "MIC", "setting": "Pseudomonas aeruginosa", "result": "> 800", "unit": "µM"}, {"measurement": "MIC", "setting": "Staphylococcus aureus", "result": "> 800", "unit": "µM"}]}, {"compound": "Ac-KKGKKGKKG-NH2", "values": [{"measurement": "MIC", "setting": "Escherichia coli", "result": "> 800", "unit": "µM"}, {"measurement": "MIC", "setting": "Pseudomonas aeruginosa", "result": "> 800", "unit": "µM"}, {"measurement": "MIC", "setting": "Staphylococcus aureus", "result": "> 800", "unit": "µM"}]}]}
